# Data as given in PMC8126654, “Novel Pan-Pim Kinase Inhibitors With Imidazopyridazine and Thiazolidinedione Structure Exert Potent Antitumor Activities” (Frontiers in Pharmacology, 2021).
# Like-named read-outs stand apart in the source and are kept apart here.
# Columns and labels:
# [1] = cited from earlier work
# Pim-3 = target: T1, Pim-3 (Homo sapiens, UniProt Q86V86); experiment: In vitro Pim kinase activity assay (FRET-based Z'-LYTE), Pim-3; type: biochemical; details: ATP 100 µM; read-out: IC50 values for enzyme activities, Pim-3
# T1 construct: purchased Merck KgaA
# Protocol: (§1) The inhibition ratios of test compounds for Pim-1, 2 (Life Technologies; Thermo Fisher Scientific Inc., MA, United States), 3 (Merck KgaA), and FLT3 (Life Technologies; Thermo Fisher Scientific Inc., MA, United States) were determined using a modified FRET-based Z′-LYTE kinase assay kit (Invitrogen; Thermo Fisher Scientific Inc.). The Ser/Thr 7 peptide and Tyr-2 peptide were used as substrates for Pim kinases and FLT3, respectively. The reactions were carried out in a 384-well plate with a 10 µL reaction volume per well containing 1 µM substrates in 50 mM HEPES buffer with pH 7.5, 0.01% BRIJ-35, 10 mM MgCl2, 1 mM EGTA, and an appropriate amount of kinases (Pim-1: 0.03 μg/ml, Pim-2: 0.2 μg/ml, Pim-3: 0.2 μg/ml, FLT3: 0.1 μg/ml) with test compounds. The final reaction concentrations of ATP were 400, 5, 100, and 500 µM for Pim-1, 2, 3, and FLT3 respectively. After 1 h incubation, reactions were developed and terminated, and fluorescence ratios were calculated following the manufacturer’s protocol.
# Pim-1 [2] = target: T2, Pim-1 (Homo sapiens, UniProt P11309); experiment: In vitro Pim kinase activity assay (FRET-based Z'-LYTE), Pim-1; type: biochemical; details: ATP 400 µM; read-out: IC50 values for enzyme activities, Pim-1
# T2 construct: purchased Life Technologies; Thermo Fisher Scientific Inc
# T2 sequence (P11309 whole entry): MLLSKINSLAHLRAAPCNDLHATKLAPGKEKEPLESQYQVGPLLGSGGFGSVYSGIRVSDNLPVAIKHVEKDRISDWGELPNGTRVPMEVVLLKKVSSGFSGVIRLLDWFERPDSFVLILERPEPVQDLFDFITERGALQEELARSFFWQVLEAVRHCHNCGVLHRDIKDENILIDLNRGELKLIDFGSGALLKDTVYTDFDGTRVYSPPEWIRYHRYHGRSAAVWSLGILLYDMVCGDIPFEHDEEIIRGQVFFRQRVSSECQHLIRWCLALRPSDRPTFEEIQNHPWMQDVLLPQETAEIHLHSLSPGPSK
# Protocol: as §1
# Pim-1 [3] = target: T2, Pim-1; experiment: Binding detection based on SPR platform (BIACORE T200); details: 6.5, 13, 25, or 50 µM
# Protocol: The interactions between test compounds and Pim-1 were detected by surface plasmon resonance platform BIACORE T200 (GE Healthcare Life Sciences, Buckinghamshire, England). Pim-1 was diluted to 20 μg/ml in 10 mM acetate buffer (pH 5.0), and then immobilized as a ligand in the N-hydroxysuccinimide/ethyl 3-(3-dimethylaminopropyl) carbodiimide-pre-activated CM5 sensor chip, following blocking by ethanolamine. Test compounds were diluted at 6.5, 13, 25, or 50 µM in a vehicle of 5% DMSO (v/v) in phosphate buffered saline (PBS). The dilutions were injected as analyte flow liquid phase with PBS containing 5% DMSO (v/v) as running buffer at a constant flow rate of 30 μL/min. A 2-min association time was set. The data were collected by Biacore Control Software. Kinetics and affinity parameters were evaluated with the Langmuir model (1:1) using BIA evaluation software.
# Pim-2 = target: T3, Pim-2 (Homo sapiens, UniProt Q9P1W9); experiment: In vitro Pim kinase activity assay (FRET-based Z'-LYTE), Pim-2; type: biochemical; details: ATP 5 µM; read-out: IC50 values for enzyme activities, Pim-2
# T3 construct: purchased Life Technologies; Thermo Fisher Scientific Inc
# T3 sequence (Q9P1W9 whole entry): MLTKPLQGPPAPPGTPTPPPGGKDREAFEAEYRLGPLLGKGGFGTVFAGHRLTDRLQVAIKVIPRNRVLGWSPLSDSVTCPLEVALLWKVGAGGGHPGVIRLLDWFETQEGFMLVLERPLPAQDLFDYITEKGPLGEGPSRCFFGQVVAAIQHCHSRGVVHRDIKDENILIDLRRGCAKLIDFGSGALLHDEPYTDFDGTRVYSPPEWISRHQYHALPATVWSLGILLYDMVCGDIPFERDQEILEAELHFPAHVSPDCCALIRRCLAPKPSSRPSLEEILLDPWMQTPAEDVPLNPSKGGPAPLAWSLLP
# Protocol: as §1
# PC-3 xenograft model = experiment: In vivo xenograft study, PC-3; set-up: species or system BALB/cSlc-nu/nu mice; details: for TGI (tumor growth inhibition): intravenously every 4 days
# Protocol: (§2) For evaluation of antitumor activity, MV-4-11 (5 × 10^6 cells) or PC-3 cells (2 × 10^6 cells) were injected subcutaneously in the inguinal region of 6-week-old male BALB/cSlc-nu/nu mice (Japan SLC, Inc., Shizuoka, Japan), with Matrigel (BD Biosciences, San Jose, CA, USA). When the average tumor volume (length × width^2 × 1/2) had reached 40 to 120 mm^3, animals were randomized into groups of seven mice for vehicle control group of MV-4-11 xenograft model or five mice for the other groups (day 1). Test compounds were injected into the tail vein every 4 days from day 1, with an administration volume of 10 ml/kg. Tumor volumes were measured 2 times per week and body weights of the mice were monitored on 2 or 3 times per week as an indicator of tolerability. On day 22 or 16, antitumor activity was evaluated by weighing tumor tissues. Tumor growth inhibition, TGI (%), was calculated according to formula (1 − T/C) × 100, where T and C are the mean tumor weights for the experimental and vehicle control groups, respectively. The differences between the mean tumor weights for comparing groups were analyzed using Dunnett’s test, where P < 0.05 was considered to be significant.
# [4] = tested on: phosphorylation level of 4E-BP in PC-3 tumors; experiment: Pharmacodynamics study in PC-3 xenograft tumors (phospho-4E-BP immunoblot); type: in vivo, mice; details: single dose 187.5 mg/kg
# Protocol: (§3) Cells were plated overnight and then treated with test compounds for 4 hours. Then, the cells were lyzed in solubilization buffer [10 mM Tris-HCl (pH7.4), 0.1% (w/v) NP-40, 0.1% (w/v) sodium deoxycholate, 0.1% (w/v) SDS, 0.15 M NaCl, 1 mM EDTA, 10 µM aprotinin] with phosphatase inhibitor cocktails (Nakarai Tesque, Kyoto, Japan), and subjected to SDS-PAGE using 15% (w/v) gels under reducing conditions. The separated proteins were electrotransferred to Immobilon transfer membranes (Merck Millipore, Darmstadt, Germany). Then, each membrane was reacted with primary antibodies, which were subsequently complexed with appropriate horseradish peroxidase-conjugated secondary antibodies. Signals were detected using the ECL Western Blotting Detection System (GE Healthcare Life Sciences) and protein expression was quantified with a LAS-3000 Luminescent Image Analyzer (GE Healthcare Life Sciences). The protein bands were quantified using ImageQuant TL software (GE Healthcare Life Sciences).
# Tumors were resected 1, 2, 6, or 24 h after injection and lyzed for immunoblot analysis.
# MV-4-11 xenograft model = experiment: In vivo xenograft study, MV-4-11; set-up: species or system BALB/cSlc-nu/nu mice; details: for TGI (tumor growth inhibition): intravenously every 4 days
# Protocol: as §2
# FLT3 = target: T4, FLT3 (Homo sapiens, UniProt P36888); experiment: FLT3 kinase activity assay (FRET-based Z'-LYTE); type: biochemical; details: ATP 500 µM; read-out: IC50 against FLT3 kinase
# T4 construct: purchased Life Technologies; Thermo Fisher Scientific Inc
# T4 sequence (P36888 27-993): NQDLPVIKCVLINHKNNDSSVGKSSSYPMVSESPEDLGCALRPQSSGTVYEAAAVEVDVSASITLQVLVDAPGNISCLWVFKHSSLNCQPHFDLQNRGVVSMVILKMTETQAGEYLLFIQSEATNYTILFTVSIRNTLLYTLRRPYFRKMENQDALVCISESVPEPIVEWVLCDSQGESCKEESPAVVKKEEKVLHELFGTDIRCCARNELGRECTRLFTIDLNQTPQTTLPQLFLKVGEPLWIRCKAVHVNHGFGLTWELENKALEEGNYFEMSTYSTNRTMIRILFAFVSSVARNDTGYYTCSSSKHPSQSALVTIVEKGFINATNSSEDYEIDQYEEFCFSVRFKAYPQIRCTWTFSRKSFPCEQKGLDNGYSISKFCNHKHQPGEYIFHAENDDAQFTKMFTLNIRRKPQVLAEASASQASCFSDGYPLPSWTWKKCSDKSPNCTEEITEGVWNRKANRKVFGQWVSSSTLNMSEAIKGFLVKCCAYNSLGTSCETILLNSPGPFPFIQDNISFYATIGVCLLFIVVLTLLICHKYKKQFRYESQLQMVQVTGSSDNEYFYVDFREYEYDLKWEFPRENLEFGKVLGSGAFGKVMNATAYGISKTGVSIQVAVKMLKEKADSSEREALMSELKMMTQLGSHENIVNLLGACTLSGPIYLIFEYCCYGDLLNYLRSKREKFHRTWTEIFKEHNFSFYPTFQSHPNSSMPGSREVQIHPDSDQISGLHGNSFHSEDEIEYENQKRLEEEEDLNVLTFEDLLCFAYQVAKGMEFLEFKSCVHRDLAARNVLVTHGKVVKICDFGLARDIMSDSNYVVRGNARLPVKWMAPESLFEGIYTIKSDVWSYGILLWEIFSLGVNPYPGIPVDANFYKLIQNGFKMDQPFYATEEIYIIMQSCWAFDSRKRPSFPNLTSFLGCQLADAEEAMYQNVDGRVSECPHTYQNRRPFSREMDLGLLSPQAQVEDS
# Protocol: as §1
# cancer cell lines = experiment: Cytotoxicity assay for cell survival (cancer cell proliferation); type: cell-based; details: 96 hours; read-out: IC50 for proliferation of a broad spectrum of cancer cell lines (range)
# From the text: We obtained colon cancer HCT116 and HT-29 cells, prostate cancer PC-3, DU145, and LNCaP cells, lung cancer NCI-H460 and NCI-H522 cells, breast cancer MDA-MB-231 cells, AML MV-4-11 cells, and chronic myeloid leukemia (CML) K-562, MEG-01, and KU812 cells from American Type Culture Collection (Manassas, VA, United States); stomach cancer MKN45 cells from the Health Science Research Resources Bank (Osaka, Japan); pancreatic cancer AsPC-1 and MIA PaCa-2, and lung cancer A549 cells from DS Pharma Biomedical (Osaka, Japan). All cell lines were cultured in RPMI1640 medium (Life Technologies; Thermo Fisher Scientific Inc.) with 10% (v/v) fetal bovine serum (FBS; Sigma-Aldrich; Merck KgaA) at 37°C in 5% CO2.
# Cells were seeded in 96-well plates and test compounds were added to the cultures at several concentrations.
# PC-3 = experiment: Immunoblot analysis of phosphorylation of Pim kinase substrates, PC-3; type: cell-based; details: PC-3, 4 h
# Protocol: as §3
# [5] = experiment not completed (data not shown)
compound,measurement,setting,value
CN1CCC(CNc2ccc3ncc(-c4cccc(OC(F)(F)F)c4)n3n2)CC1 [SGI-1776],Reason for termination of clinical study,[1]; ref NCT00848601,dose-limiting toxicity
"CCCCCCCCCCN1CCN(c2ccc(-c3cnc4ccc(/C=C5\SC(=O)NC5=O)nn34)cc2F)CC1 [YPC-21814, (Z)-5-([3-{4-(4-decylpiperazin-1-yl)-3-fluorophenyl}imidazo[1,2-b]pyridazin-6-yl]methylene)thiazolidine-2,4-dione]",IC50,Pim-3,> 1.8 µM
same,IC50,Pim-1 [2],> 1.8 µM
same,Binding to Pim-1 by SPR (Biacore),Pim-1 [3],did not bind to Pim-1
same,IC50,Pim-2,> 1.8 µM
N[C@@H]1CCCN(c2c(/C=C3\SC(=O)NC3=O)cccc2-c2ccccc2)C1 [AZD1208],Reason for termination of clinical study,[1]; ref NCT01489722,lack of clinical response
"CCN1CCN(c2ccc(-c3cnc4ccc(/C=C5\SC(=O)NC5=O)nn34)cc2F)CC1.CS(=O)(=O)O [YPC-21817 MsOH, (Z)-5-([3-{4-(4-ethylpiperazin-1-yl)-3-fluorophenyl}imidazo[1,2-b]pyridazin-6-yl]methylene)thiazolidine-2,4-dione methanesulfonate]",TGI (tumor growth inhibition),PC-3 xenograft model; 62.5 mg/kg/dose,0.92%
same,TGI (tumor growth inhibition),PC-3 xenograft model; 125 mg/kg/dose,8.4%
same,TGI (tumor growth inhibition),PC-3 xenograft model; 187.5 mg/kg/dose,48%
same,Serious decrease in body weight,PC-3 xenograft model; evaluation period,not observed
same,Phosphorylation level of 4E-BP in tumors,"[4]; 1, 2, and 6 hours after administration",signigficantly decreased
same,Phosphorylation level of 4E-BP in tumors,[4]; 24 hours after administration,almost completely recovered
same,TGI (tumor growth inhibition),MV-4-11 xenograft model; 62.5 mg/kg/dose,20%
same,TGI (tumor growth inhibition),MV-4-11 xenograft model; 125 mg/kg/dose,39%
same,TGI (tumor growth inhibition),MV-4-11 xenograft model; 187.5 mg/kg/dose,70%
same,Serious decrease in body weight,MV-4-11 xenograft model; evaluation period,not observed
"CCN1CCN(c2ccc(-c3cnc4ccc(/C=C5\SC(=O)NC5=O)nn34)cc2F)CC1 [YPC-21817, (Z)-5-([3-{4-(4-ethylpiperazin-1-yl)-3-fluorophenyl}imidazo[1,2-b]pyridazin-6-yl]methylene)thiazolidine-2,4-dione]",IC50,FLT3,2 µM
same,IC50,cancer cell lines,0.024 to 0.65 µM
same,"Phosphorylation levels of Bad, 4EBP, and p21",PC-3,decreased
"CCCCCN1CCN(c2ccc(-c3cnc4ccc(/C=C5\SC(=O)NC5=O)nn34)cc2F)CC1 [YPC-21813, (Z)-5-([3-{4-(4-pentylpiperazin-1-yl)-3-fluorophenyl}imidazo[1,2-b]pyridazin-6-yl]methylene)thiazolidine-2,4-dione]",IC50,Pim-3,0.36 µM
same,IC50,Pim-1 [2],0.43 µM
same,IC50,Pim-2,0.49 µM
"CN1CCN(c2ccc(-c3cnc4ccc(/C=C5\SC(=O)NC5=O)nn34)cc2C(C)(C)C)CC1 [YPC-21867, (Z)-5-([3-{3-(tert-butyl)-4-(4-methylpiperazin-1-yl)phenyl}imidazo[1,2-b]pyridazin-6-yl]methylene)thiazolidine-2,4-dione]",IC50,Pim-3,0.54 µM
same,IC50,Pim-1 [2],0.12 µM
same,IC50,Pim-2,0.19 µM
"CN1CCN(c2ccc(-c3cnc4ccc(/C=C5\SC(=O)NC5=O)nn34)cc2)CC1.CS(=O)(=O)O [YPC-21440 MsOH, (Z)-5-([3-{4-(4-methylpiperazin-1-yl)phenyl}imidazo[1,2-b]pyridazin-6-yl]methylene)thiazolidine-2,4-dione methanesulfonate]",Body weight loss,PC-3 xenograft model; [5],serious body weight loss
same,Tumor growth,PC-3 xenograft model; [5],tended to be suppressed
same,TGI (tumor growth inhibition),MV-4-11 xenograft model; 62.5 mg/kg/dose,26%
same,Body weight decrease (as much as) compared with day 1,MV-4-11 xenograft model; 125 mg/kg/dose,5.2 ± 10%
same,TGI (tumor growth inhibition),MV-4-11 xenograft model; 125 mg/kg/dose,60%
same,Body weight decrease (as much as) compared with day 1,MV-4-11 xenograft model; 187.5 mg/kg/dose,7.1 ± 21%
same,TGI (tumor growth inhibition),MV-4-11 xenograft model; 187.5 mg/kg/dose,77%
